Experimental data: patent US7015215B2, “Pyrrolo[2,1-c][1,4] benzodiazepines compounds and process thereof” (Council of Scientific and Industrial Research, priority 2003, dated 2006)

Tests used:
EKVX = experiment: NCI SRB cytotoxicity, Non-small-cell lung EKVX; type: cell-based, human; conditions: 48 h
Method: (§1) Biological Activity: In vitro biological activity studies were carried out at National Cancer Institute (U.S.A.).
(§2) For each compound, dose response curves for each cell line were measured at a minimum of five concentrations at 10 fold dilutions. A protocol of 48 h continuous drug exposure was used, and a sulforhodamine B (SRB) protein assay was used to estimate cell viability or growth. The concentration causing 50% cell growth inhibition (GI50), total cell growth inhibition (TGI, 0% growth) and 50% cell death (LC50, −50% growth) compared with the control was calculated.

HOP-62 = experiment: NCI SRB cytotoxicity, Non-small-cell lung HOP-62; type: cell-based, human; conditions: HOP-62, Non-small-cell lung, 48 h
Method: as §1, §2

HS578T = experiment: NCI SRB cytotoxicity, Breast HS578T; type: cell-based, human; conditions: 48 h
Method: as §1, §2

BT-549 = experiment: NCI SRB cytotoxicity, Breast BT-549; type: cell-based, human; conditions: BT-549, Breast, 48 h
Method: as §1, §2

MALME-3M = experiment: NCI SRB cytotoxicity, Melanoma MALME-3M; type: cell-based, human; conditions: 48 h
Method: as §1, §2

OVCAR-5 = experiment: NCI SRB cytotoxicity, Ovarian OVCAR-5; type: cell-based, human; conditions: OVCAR-5, Ovarian, 48 h
Method: as §1, §2

MCF7 = experiment: NCI SRB cytotoxicity, Breast MCF7; type: cell-based, human; conditions: 48 h
Method: as §1, §2

UACC-257 = experiment: NCI SRB cytotoxicity, Melanoma UACC-257; type: cell-based, human; conditions: UACC-257, Melanoma, 48 h
Method: as §1, §2

CAKI-1 = experiment: NCI SRB cytotoxicity, Renal CAKI-1; type: cell-based, human; conditions: CAKI-1, Renal, 48 h
Method: as §1, §2

SNB-75 = experiment: NCI SRB cytotoxicity, CNS SNB-75; type: cell-based, human; conditions: SNB-75, CNS, 48 h
Method: as §1, §2

OVCAR-3 = experiment: NCI SRB cytotoxicity, Ovarian OVCAR-3; type: cell-based, human; conditions: OVCAR-3, Ovarian, 48 h
Method: as §1, §2

ACHN = experiment: NCI SRB cytotoxicity, Renal ACHN; type: cell-based, human; conditions: 48 h
Method: as §1, §2

DU-145 = experiment: NCI SRB cytotoxicity, Prostate DU-145; type: cell-based, human; conditions: DU-145, Prostate, 48 h
Method: as §2

M14 = experiment: NCI SRB cytotoxicity, Melanoma M14; type: cell-based, human; conditions: 48 h
Method: as §1, §2

MDA-MB-435 = experiment: NCI SRB cytotoxicity, Breast MDA-MB-435; type: cell-based, human; conditions: MDA-MB-435, Breast, 48 h
Method: as §1, §2

COLO 205 = experiment: NCI SRB cytotoxicity, Colon COLO 205; type: cell-based, human; conditions: COLO 205, Colon, 48 h
Method: as §1, §2

HOP-92 = experiment: NCI SRB cytotoxicity, Non-small-cell lung HOP-92; type: cell-based, human; conditions: HOP-92, Non-small-cell lung, 48 h
Method: as §1, §2

UO-31 = experiment: NCI SRB cytotoxicity, Renal UO-31; type: cell-based, human; conditions: UO-31, Renal, 48 h
Method: as §2

HT-29 = experiment: NCI SRB cytotoxicity, Colon HT-29; type: cell-based, human; conditions: HT-29, Colon, 48 h
Method: as §1, §2

TK-10 = experiment: NCI SRB cytotoxicity, Renal TK-10; type: cell-based, human; conditions: TK-10, Renal, 48 h
Method: as §1, §2

OVCAR-8 = experiment: NCI SRB cytotoxicity, Ovarian OVCAR-8; type: cell-based, human; conditions: OVCAR-8, Ovarian, 48 h
Method: as §1, §2

SF-295 = experiment: NCI SRB cytotoxicity, CNS SF-295; type: cell-based, human; conditions: SF-295, CNS, 48 h
Method: as §1, §2

UACC-62 = experiment: NCI SRB cytotoxicity, Melanoma UACC-62; type: cell-based, human; conditions: UACC-62, Melanoma, 48 h
Method: as §1, §2

SK-MEL-28 = experiment: NCI SRB cytotoxicity, Melanoma SK-MEL-28; type: cell-based, human; conditions: SK-MEL-28, Melanoma, 48 h
Method: as §1, §2

KM-12 = experiment: NCI SRB cytotoxicity, Colon KM-12; type: cell-based, human; conditions: KM-12, Colon, 48 h
Method: as §1, §2

NCI-H322 = experiment: NCI SRB cytotoxicity, Non-small-cell lung NCI-H322; type: cell-based, human; conditions: 48 h
Method: as §1, §2

PC-3 = experiment: NCI SRB cytotoxicity, Prostate PC-3; type: cell-based, human; conditions: PC-3, Prostate, 48 h
Method: as §2

RPMI-8226 = experiment: NCI SRB cytotoxicity, Leukemia RPMI-8226; type: cell-based, human; conditions: RPMI-8226, Leukemia, 48 h
Method: as §2

SK-MEL-5 = experiment: NCI SRB cytotoxicity, Melanoma SK-MEL-5; type: cell-based, human; conditions: SK-MEL-5, Melanoma, 48 h
Method: as §1, §2

NCI-H23 = experiment: NCI SRB cytotoxicity, Non-small-cell lung NCI-H23; type: cell-based, human; conditions: 48 h
Method: as §1, §2

NCI/ADR-RES = experiment: NCI SRB cytotoxicity, Breast NCI/ADR-RES; type: cell-based, human; conditions: 48 h
Method: as §1, §2

NCI-H460 = experiment: NCI SRB cytotoxicity, Non-small-cell lung NCI-H460; type: cell-based, human; conditions: 48 h
Method: as §1, §2

IGROVI = experiment: NCI SRB cytotoxicity, Ovarian IGROVI; type: cell-based, human; conditions: 48 h
786-0 = experiment: NCI SRB cytotoxicity, Renal 786-0; type: cell-based, human; conditions: 786-0, Renal, 48 h
Method: as §1, §2

human tumor cell lines = experiment: NCI in vitro cytotoxicity SRB assay, mean graph midpoints over the panel; type: cell-based; conditions: 48 h continuous exposure
Method: as §1, §2

K-62 = experiment: NCI SRB cytotoxicity, Leukemia K-62; type: cell-based, human; conditions: K-62, Leukemia, 48 h
Method: as §1, §2

SF-268 = experiment: NCI SRB cytotoxicity, CNS SF-268; type: cell-based, human; conditions: SF-268, CNS, 48 h
Method: as §1, §2

Compound: COc1cc2c(cc1OCCN1CCN(CCOc3cc4c(cc3OC)C(=O)N3CCC[C@H]3C=N4)CC1)N=C[C@@H]1CCCN1C2=O [Compound VIa, 1,1′-{[(bisethane-1,N-diyl)piperazine]dioxy}bis[(11aS)-7-methoxy-1,2,3,11a-tetrahydro-5H-pyrrolo[2,1-c][1,4]benzodiazepin-5-one]]
- Log GI 50 (EKVX): −4.00 mol/L
- Log LC 50 (EKVX): −4.00 mol/L
- Log GI 50 (HOP-62): −4.46 mol/L
- Log LC 50 (HOP-62): −4.00 mol/L
- Log GI 50 (HS578T): −4.34 mol/L
- Log LC 50 (HS578T): −4.00 mol/L
- Log GI 50 (BT-549): −4.56 mol/L
- Log LC 50 (BT-549): −4.00 mol/L
- Log GI 50 (MALME-3M): −5.46 mol/L
- Log LC 50 (MALME-3M): −4.17 mol/L
- Log GI 50 (OVCAR-5): −4.65 mol/L
- Log LC 50 (OVCAR-5): −4.00 mol/L
- Log GI 50 (MCF7): −4.88 mol/L
- Log LC 50 (MCF7): −4.00 mol/L
- Log GI 50 (UACC-257): −4.49 mol/L
- Log LC 50 (UACC-257): −4.00 mol/L
- Log GI 50 (CAKI-1): −5.04 mol/L
- Log LC 50 (CAKI-1): −4.00 mol/L
- Log GI 50 (SNB-75): −4.23 mol/L
- Log LC 50 (SNB-75): −4.00 mol/L
- Log GI 50 (OVCAR-3): −4.68 mol/L
- Log LC 50 (OVCAR-3): −4.00 mol/L
- Log GI 50 (ACHN): −4.82 mol/L
- Log LC 50 (ACHN): −4.00 mol/L
- Log GI 50 (DU-145): −4.36 mol/L
- Log LC 50 (DU-145): −4.00 mol/L
- Log GI 50 (M14): −4.61 mol/L
- Log GI 50 (MDA-MB-435): −4.71 mol/L
- Log LC 50 (MDA-MB-435): −4.08 mol/L
- Log GI 50 (COLO 205): −4.66 mol/L
- Log LC 50 (COLO 205): −4.00 mol/L
- Log GI 50 (HOP-92): −4.68 mol/L
- Log LC 50 (HOP-92): −4.00 mol/L
- Log GI 50 (UO-31): −4.12 mol/L
- Log LC 50 (UO-31): −4.00 mol/L
- Log GI 50 (HT-29): −4.58 mol/L
- Log LC 50 (HT-29): −4.00 mol/L
- Log GI 50 (TK-10): −4.63 mol/L
- Log LC 50 (TK-10): −4.00 mol/L
- Log GI 50 (OVCAR-8): −4.58 mol/L
- Log LC 50 (OVCAR-8): −4.00 mol/L
- Log GI 50 (SF-295): −5.06 mol/L
- Log LC 50 (SF-295): −4.00 mol/L
- Log GI 50 (UACC-62): −4.83 mol/L
- Log LC 50 (UACC-62): −4.00 mol/L
- Log GI 50 (SK-MEL-28): −4.22 mol/L
- Log LC 50 (SK-MEL-28): −4.00 mol/L
- Log GI 50 (KM-12): −4.70 mol/L
- Log LC 50 (KM-12): −4.04 mol/L
- Log GI 50 (NCI-H322): −4.51 mol/L
- Log LC 50 (NCI-H322): −4.00 mol/L
- Log GI 50 (PC-3): −4.44 mol/L
- Log LC 50 (PC-3): −4.00 mol/L
- Log GI 50 (RPMI-8226): −6.08 mol/L
- Log LC 50 (RPMI-8226): −4.33 mol/L
- Log GI 50 (SK-MEL-5): −4.75 mol/L
- Log LC 50 (SK-MEL-5): −4.00 mol/L
- Log GI 50 (NCI-H23): −4.76 mol/L
- Log LC 50 (NCI-H23): −4.00 mol/L
- Log GI 50 (NCI/ADR-RES): −4.00 mol/L
- Log LC 50 (NCI/ADR-RES): −4.00 mol/L
- Log GI 50 (NCI-H460): −4.95 mol/L
- Log LC 50 (NCI-H460): −4.00 mol/L
- Log GI 50 (IGROVI): −4.21 mol/L
- Log LC 50 (IGROVI): −4.00 mol/L
- Log GI 50 (786-0): −4.84 mol/L
- Log LC 50 (786-0): −4.00 mol/L
- Log10 GI50 mean graph midpoint (MG_MID) (human tumor cell lines): −4.69
- Log10 LC50 mean graph midpoint (MG_MID) (human tumor cell lines): −4.03
- Log10 TGI mean graph midpoint (MG_MID) (human tumor cell lines): −4.16
- Log GI 50 (K-62): −4.58 mol/L
- Log LC 50 (K-62): −4.00 mol/L
- Log GI 50 (SF-268): −4.95 mol/L
- Log LC 50 (SF-268): −4.00 mol/L
